Measured values from US9949489B2, “Methods for control of hemipteran insect stylet sheath structure formation” (The United States of America, as Represented by the …, priority 2015, dated 2018).

Experiments:
D. citri [1] = assay: Liquid ACP diet sandwich feeding assay (MFC): inhibition of de novo stylet sheath formation; type: in vivo, Diaphorina citri; design: key: −: No effect apparent; +/−: inconclusive; +: apparent slight effect; ++: increased apparent effect; +++: high effect; ++++: very high effect; +++++: complete degradation of sheaths or inhibition of sheath synthesis; details: enzyme in liquid ACP diet, about 24 h, 25° C., enzyme amounts and pH per Table 5 (cellulase approx 1 unit/μl)
Experimental: The next step was to determine if addition of cellulase to the diet of D. citri would interfere with stylet sheath formation. A D. citri diet is prepared as described by Hall, David et al., “Research toward an artificial diet for adult Asian citrus psyllid,” Annals of the Entomological Society of America 103.4:611-617 (2010). Approximately 25 D. citri were collected into polystyrene Cellstar 35 mm×10 mm dishes (Griener Bio-One, Monroe, N.C.) that were then sealed using a single layer of Parafilm® M (Pechiney Plastic Packaging Company, Chicago, Ill.). Approximately 99 μl of liquid ACP diet (e.g., diet lacking the solidifying agar component, see Hall, et. al., 2010, supra) was mixed with approximately 1 μl of cellulase (Sigma Aldrich, St. Louis, Mo.) and mixed. […]
Because many biomolecule polymerizing enzymes require divalent cations as cofactors, the effect of ethylenediaminetetraacetic acid (EDTA), a chelator of divalent cations, on ACP SS formation was tested by adding EDTA to the previously described liquid ACP diet (see Hall et al., 2010, supra). […] Uncommon bands between the liquid ACP diet containing EDTA and liquid ACP diet without EDTA (negative control) lanes were cut out and analyzed by Orbitrap (Thermo Scientific, Waltham, Mass.) protein analysis, according to manufacturer's protocol. […]

[2] = test system: D. citri stylet sheaths (ACP SSs); assay: Degradation of preformed, solidified stylet sheaths by enzymes (MFC membrane or slide incubation); design: species or system Diaphorina citri; key to Sheath Degradation: −: No effect apparent; +/−: inconclusive; +: apparent slight effect; ++: increased apparent effect; +++: high effect; ++++: very high effect; +++++: complete degradation of sheaths or inhibition of sheath synthesis; details: D. citri preformed sheaths; enzyme concentration, pH and temperature per Table 4 (cellulase 1:25, pH 6.0, 60° C.)
Experimental: In order to test cellulase's effect on preformed ACP SSs, formed, solidified stylet sheaths were harvested directly from the surface of an MFC membrane (in these experiments either plastic wrap or parafilm was used) as described herein and in Morgan et al. 2013, supra. Approximately 100 psyllids were placed into an MFC for about 24 hours. The MFCs consisted of D. citri caged individually and/or in groups within 100 mm×15 mm plastic Petri dishes. A single kitchen plastic wrap layer was stretched across the top of each Petri dish to seal the Petri dish from insect escape and to provide a stylet penetrable surface for insect probing.
Several MFCs (the Petri dishes covered with kitchen plastic wrap or parafilm and containing D. citri) were placed into clear Pyrex® baking dishes with the membrane (kitchen plastic wrap or parafilm) side up, and the Pyrex® baking dish is covered with a single layer of clear kitchen plastic wrap to prevent external contaminant interactions with the membrane surface during incubation. MFCs were incubated at a temperature of about 25° C., relative humidity of about 75%, and a light:dark cycle of about […]. […]

D. citri [3] = assay: Liquid ACP diet sandwich feeding assay (MFC): inhibition of de novo stylet sheath formation; type: in vivo, Diaphorina citri; details: about 24 h; cellulase approx 1 unit/μl; BAPN 100 mM; EDTA approx 2 mM; proteases per Table 5
Experimental: The next step was to determine if addition of cellulase to the diet of D. citri would interfere with stylet sheath formation. A D. citri diet is prepared as described by Hall, David et al., “Research toward an artificial diet for adult Asian citrus psyllid,” Annals of the Entomological Society of America 103.4:611-617 (2010). Approximately 25 D. citri were collected into polystyrene Cellstar 35 mm×10 mm dishes (Griener Bio-One, Monroe, N.C.) that were then sealed using a single layer of Parafilm® M (Pechiney Plastic Packaging Company, Chicago, Ill.). Approximately 99 μl of liquid ACP diet (e.g., diet lacking the solidifying agar component, see Hall, et. al., 2010, supra) was mixed with approximately 1 μl of cellulase (Sigma Aldrich, St. Louis, Mo.) and mixed. […] layer Parafilm® M surface, which was then covered with another layer of Parafilm® M to form a sandwich (e.g., Parafilm® M—liquid ACP diet with cellulase—Parafilm® M) to allow ACP to feed into the liquid ACP diet containing cellulase. This MFC was then incubated at about 25° C., at about 75% relative humidity, with a light:dark cycle of approximately 14:10 hours for a period of about 24 hours. After about 24 hours, the stylet sheaths were observed using an inverted microscope. FIGS. 3G through 3I are images of three separate locations where D. citri made attempts to feed into the liquid ACP diet containing approximately 1 unit/μl cellulase.
Because many biomolecule polymerizing enzymes require divalent cations as cofactors, the effect of ethylenediaminetetraacetic acid (EDTA), a chelator of divalent cations, on ACP SS formation was tested by adding EDTA to the previously described liquid ACP diet (see Hall et al., 2010, supra). The EDTA was added to the liquid ACP diet at a concentration of approximately 2 mM EDTA in diH2O. Approximately 200 D. citri were placed in plastic Petri dishes. The dishes were covered with a single layer of Parafilm® M to form MFC. […] The MFC plates were incubated at a temperature of about 25° C., a relative humidity of about 75%, and a light/dark cycle of about 14:10 hours duration. Following the 24-hour incubation, the fluid (either liquid ACP diet containing EDTA or just the liquid ACP diet) between the two sheets of plastic was harvested by using a sterile 5 ml syringe and 20-gauge needle which was pushed into the center of the Parafilm® M-fluid-Parafilm® M sandwich, and the fluid was then removed by syringe plunger suction. The harvested fluids were put into sterile 50 ml conical vials, placed at about −80° C. until frozen. Each vial of harvested fluid was then lypholyzed overnight. The lyophilized product was then solubilized in […], placed at about −80° C. until frozen, then each new vial was lyopholyzed overnight. The lyophilized product was then solubilized in approximately 15 μL of approximately 1× Laemmili buffer (Bio-Rad, Hercules, Calif.) containing approximately 5% 2-mercaptoethanol. The sample was loaded onto a sodium dodecyl sulfate polyacrylamide gel (SDS-PAGE) and underwent electrophoresis. The SDS PAGE gel was then stained with coomassie. Uncommon bands between the liquid ACP diet containing EDTA and liquid ACP diet without EDTA (negative control) lanes were cut out and analyzed by Orbitrap (Thermo Scientific, Waltham, Mass.) protein analysis, according to manufacturer's protocol.
After about 24-hour incubation, D. citri feeding sites were observed. […] See also Table 2 and Table 3, infra.

Chymopapain from papaya latex: Cysteine peptidase; Sigma #C8526
Inhibition of Sheath Formation (D. citri [1]): +++++
Sheath Degradation [2]: +++++
Effect on D. citri stylet sheath formation in liquid ACP diet (D. citri [3]): capable of inhibiting the formation of ACP SSs
